# Measured values from patent US4731360A, “Acylcarnitines as absorption-enhancing agents for drug delivery through mucous membranes of the nasal, buccal, sublingual and vaginal compartments” (Merck & Co., Inc., priority 1985, dated 1988).
# Key:
# [1] = system: mucous membranes of the nasal, buccal, sublingual and vaginal compartments; assay: Promotion of drug absorption through mucous membranes; conditions: without acyl ester
# mucosal cells = conditions: studies of surfactants; cited from earlier work
# [2] = Percent bioavailability of α-methyldopa after nasal, oral (buccal) or vaginal administration to rats, with or without palmitoylcarnitine chloride; blood levels by HPLC, against intravenous administration; type: in vivo; conditions: aqueous formulation, mean ± SD, n = 3, vs intravenous; for Percent α-methyldopa Bioavailability in the Presence (+) of Palmitoylcarnitine: with 1.0 mg palmitoylcarnitine chloride; for Percent α-methyldopa Bioavailability in the Absence (-) of Palmitoylcarnitine: without palmitoylcarnitine
# Protocol: Effect of palmitoylcarnitine chloride on the nasal, buccal and vaginal absorption of α-methyldopa (amino acid, antihypertensive). Experiments were performed with rats wherein each animal received an aqueous formulation administered to the nasal, oral or vaginal cavities. The formulations contained the indicated amount of α-methyldopa in the presence or absence of 1.0 mg palmitoylcarnitine chloride. Procedures were tested to eliminate the possibility of cross-contamination between the nasal and oral cavities. Blood levels of α-methyldopa were determined by high performance liquid chromatography and the amount of drug absorbed (percent bioavailability) calculated against intravenous α-methyldopa administration. | Values represent the mean ± SD for n = 3 determinations.
# [3] = nasal cavity, α-methyldopa 0.5 mg
# [4] = oral cavity (buccal), α-methyldopa 2.5 mg
# [5] = vaginal cavity, α-methyldopa 2.5 mg
smiles,measurement,setting,value
C[N+](C)(C)CC(O)CC(=O)[O-] (centres unmarked) [carnitine],absorption promoting effect of carnitine alone,[1],no effect
CCCCCCCCCCCCOS(=O)(=O)[O-].[Na+] [sodium lauryl sulfate],cellular damage associated with surfactant activity,mucosal cells,generally associated with some degree of cellular damage
C[C@](N)(Cc1ccc(O)c(O)c1)C(=O)O [α-methyldopa],Percent α-methyldopa Bioavailability in the Presence (+) of Palmitoylcarnitine,[2]; [3],52 ± 16.2%
same,Percent α-methyldopa Bioavailability in the Absence (-) of Palmitoylcarnitine,[2]; [3],7 ± 1.1%
same,Percent α-methyldopa Bioavailability in the Presence (+) of Palmitoylcarnitine,[2]; [4],10 ± 6.0%
same,Percent α-methyldopa Bioavailability in the Absence (-) of Palmitoylcarnitine,[2]; [4],3 ± 0.7%
same,Percent α-methyldopa Bioavailability in the Presence (+) of Palmitoylcarnitine,[2]; [5],100 ± 55.0%
same,Percent α-methyldopa Bioavailability in the Absence (-) of Palmitoylcarnitine,[2]; [5],2 ± 1.0%
